Here are results for 27 compounds from US11298363B2, “Triazolobenzazepines as vasopressin V1a receptor antagonists” (RICHTER GEDEON NYRT., priority 2017, dated 2022).

Counter-ions that a name gives are not always drawn.

For assay [1], the target named is T1, human vasopressin V1a receptor (Homo sapiens, UniProt P37288). The assay is described as follows: Human vasopressin V1a receptor binding assay. The following applies: 1321N1 cell membranes, [3H]vasopressin; read-out: Ki (nM) on hV1a cell line. The method in brief:
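Ki values come from IC50 via Cheng-Prusoff (KD from prior Scatchard), averaged over at least two independent runs. Human V1a membranes were incubated with radioligand 60 minutes at 27° C., bound ligand collected by filtration; (Arg^8)-vasopressin at 1.2×10^−6 M defined non-specific binding.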

For assay [2], the target named is T1, human vasopressin V1a receptor. The assay is described as follows: Functional assay on human vasopressin V1a receptor expressing cell line (intracellular Ca2+ fluorescence). Format: cell-based. The following applies: for IC50: 1321N1 cells, (Arg8)-vasopressin at EC80, read-out: IC50 (nM) on hV1a cell line.

T1 sequence (P37288 whole entry): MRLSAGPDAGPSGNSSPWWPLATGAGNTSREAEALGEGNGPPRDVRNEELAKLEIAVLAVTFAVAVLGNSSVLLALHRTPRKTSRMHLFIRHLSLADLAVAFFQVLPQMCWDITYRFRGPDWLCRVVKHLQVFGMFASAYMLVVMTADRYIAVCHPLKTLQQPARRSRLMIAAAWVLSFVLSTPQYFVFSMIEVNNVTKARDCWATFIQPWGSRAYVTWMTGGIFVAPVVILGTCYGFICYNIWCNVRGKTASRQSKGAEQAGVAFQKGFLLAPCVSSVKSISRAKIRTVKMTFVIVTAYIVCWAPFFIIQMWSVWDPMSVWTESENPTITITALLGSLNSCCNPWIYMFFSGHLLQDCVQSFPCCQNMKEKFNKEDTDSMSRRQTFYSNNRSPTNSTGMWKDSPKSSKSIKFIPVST

By Ki is commonly meant a dissociation constant, usually derived from enzyme kinetics or from competition with a known ligand. By IC50 is commonly meant the midpoint of a concentration-inhibition curve. For the compound `O=C(N[C@@H]1Cc2cc(Cl)ccc2-n2c(nnc2[C@H]2CC[C@H](Oc3ccccn3)CC2)C1)C1CC(F)(F)C1` [Example 220, N-{(5R)-8-chloro-1-[trans-4-(pyridin-2-yloxy)cyclohexyl]-5,6-dihydro-4H-[1,2,4]triazolo[4,3-a][1]benzazepin-5-yl}-3,3-difluorocyclobutanecarboxamide], the Ki in assay [1] was 0.4 nM. In addition, the IC50 in assay [2] is 2.6 nM.

Consider `CC(C)(C)OC(=O)NC1Cc2cc(Cl)ccc2-n2c(nnc2[C@H]2CC[C@H](N3CCOCC3)CC2)C1` (stereo partly drawn) [Example 112, Tert-butyl {8-chloro-1-[trans-4-(morpholin-4-yl)cyclohexyl]-5,6-dihydro-4H-[1,2,4]triazolo[4,3-a][1]benzazepin-5-yl}carbamate], for which the Ki in assay [1] came out at 45.4 nM. In assay [2], the IC50 stood at 213 nM.

For the compound `CCO[C@]1(C)CC[C@@H](c2nnc3n2-c2ccc(Cl)cc2CC(N(C)C)C3)CC1` (stereo partly drawn) [Example 234, 8-chloro-1-(trans-4-ethoxy-4-methylcyclohexyl)-N,N-dimethyl-5,6-dihydro-4H-[1,2,4]triazolo[4,3-a][1]benzazepin-5-amine], the Ki in assay [1] came out at 3.8 nM. Moreover, in assay [2], the IC50 was determined as 57 nM.

On to `NC1Cc2cc(C(F)(F)F)ccc2-n2c(nnc2[C@H]2CC[C@H](Oc3ccccn3)CC2)C1` (stereo partly drawn) [Example 34, 1-[trans-4-(pyridin-2-yloxy)cyclohexyl]-8-(trifluoromethyl)-5,6-dihydro-4H-[1,2,4]triazolo[4,3-a][1]benzazepine-5-amine hydrochloride], for which, in assay [1], the Ki was found to be 52 nM. Also, in assay [2], the IC50 is 700 nM.

In the case of `NCC(=O)NC1Cc2cc(Cl)ccc2-n2c(nnc2[C@H]2CC[C@H](Oc3ccccn3)CC2)C1` (stereo partly drawn) [Example 10, N-{8-chloro-1-[trans-4-(pyridin-2-yloxy)cyclohexyl]-5,6-dihydro-4H-[1,2,4]triazolo[4,3-a][1]benzazepin-5-yl}glycinamide], the Ki in assay [1] was 1.8 nM. The IC50 in assay [2] was found to be 12 nM.

For the compound `CC(C)(O)C(=O)N[C@@H]1Cc2cc(Cl)ccc2-n2c(nnc2[C@H]2CC[C@H](Oc3ccccn3)CC2)C1` [Example 169, N-{(5R)-8-chloro-1-[trans-4-(pyridin-2-yloxy)cyclohexyl]-5,6-dihydro-4H-[1,2,4]triazolo[4,3-a][1]benzazepin-5-yl}-2-hydroxy-2-methylpropanamide], the Ki in assay [1] was 0.9 nM. Moreover, the IC50 in assay [2] was found to be 2.3 nM.

Regarding `CC(C)NC1Cc2cc(F)ccc2-n2c(nnc2[C@H]2CC[C@H](Oc3ccccn3)CC2)C1` (stereo partly drawn) [Example 146, 8-fluoro-N-(propan-2-yl)-1-[trans-4-(pyridin-2-yloxy)cyclohexyl]-5,6-dihydro-4H-[1,2,4]triazolo[4,3-a][1]benzazepin-5-amine], the Ki in assay [1] amounted to 3.2 nM. Moreover, the IC50 in assay [2] was 78 nM.

`COc1ccc(CN[C@H]2CC[C@H](c3nnc4n3-c3ccc(Cl)cc3CC3(C4)OCCO3)CC2)cc1` [Example 227, Trans-4-(8′-chloro-4′H,6′H-spiro[1,3-dioxolane-2,5′-[1,2,4]triazolo[4,3-a][1]benzazepin]-1′-yl)-N-(4-methoxybenzyl)cyclohexanamine]: the Ki in assay [1] was 1 nM. Moreover, the IC50 in assay [2] was determined as 51 nM.

In the case of `Clc1ccc2c(c1)C[C@@H](N1CCOCC1)Cc1nnc([C@H]3CC[C@H](Oc4ccccn4)CC3)n1-2` [Example 167, (5R)-8-chloro-5-(morpholin-4-yl)-1-[trans-4-(pyridin-2-yloxy)cyclohexyl]-5,6-dihydro-4H-[1,2,4]triazolo[4,3-a][1]benzazepine], in assay [1], the inhibition constant (Ki) came to 0.4 nM. In assay [2], the IC50 amounted to 2.6 nM.

Regarding `C#CCN(C)[C@H]1Cc2cc(Cl)ccc2-n2c(nnc2[C@H]2CC[C@H](Oc3ccccn3)CC2)C1` [Example 209, (5S)-8-chloro-N-methyl-N-(prop-2-yn-1-yl)-1-[trans-4-(pyridin-2-yloxy)cyclohexyl]-5,6-dihydro-4H-[1,2,4]triazolo[4,3-a][1]benzazepin-5-amine], the Ki in assay [1] was determined as 0.2 nM. Also, the IC50 in assay [2] came to 1.6 nM.

Consider `OC1Cc2cc(Br)ccc2-n2c(nnc2[C@H]2CC[C@H](Oc3ccccn3)CC2)C1` (stereo partly drawn) [Example 65, 8-bromo-1-[trans-4-(pyridin-2-yloxy)cyclohexyl]-5,6-dihydro-4H-[1,2,4]triazolo[4,3-a][1]benzazepin-5-ol], for which the Ki in assay [1] was determined as 0.5 nM. The IC50 in assay [2] came to 1 nM.

As for `CC(C)C(=O)N[C@@H]1Cc2cc(Cl)ccc2-n2c(nnc2[C@H]2CC[C@H](Oc3ccccn3)CC2)C1` [Example 124, N-{(5R)-8-chloro-1-[trans-4-(pyridin-2-yloxy)cyclohexyl]-5,6-dihydro-4H-[1,2,4]triazolo[4,3-a][1]benzazepin-5-yl}-2-methylpropanamide], in assay [1], the inhibition constant (Ki) was 1.7 nM. In assay [2], the IC50 was 5.1 nM.

As to `CN1CCC(C(=O)N[C@H]2Cc3cc(Cl)ccc3-n3c(nnc3[C@H]3CC[C@H](Oc4ccccn4)CC3)C2)CC1` [Example 200], the inhibition constant (Ki) in assay [1] was determined as 114 nM. For the same compound, in assay [2], the IC50 worked out at 1190 nM.

Consider `COC1Cc2cc(Cl)ccc2-n2c(nnc2N2CCC(Oc3ccccn3)CC2)C1` (stereo not drawn) [Example 197, 8-chloro-5-methoxy-1-[4-(pyridin-2-yloxy)piperidin-1-yl]-5,6-dihydro-4H-[1,2,4]triazolo[4,3a][1]benzazepine], for which, in assay [1], the Ki amounted to 0.3 nM. Besides, in assay [2], the IC50 turned out to be 4.1 nM.

As for `CN(C)[C@H]1Cc2cc(Cl)ccc2-n2c(nnc2[C@H]2CC[C@H](Oc3ccccn3)CC2)C1` [Example 67], the inhibition constant Ki in assay [1] turned out to be 0.6 nM. The IC50 in assay [2] was found to be 2.3 nM.

In the case of `Clc1ccc2c(c1)CC1(Cc3nnc(N4CCN(c5ccccn5)CC4)n3-2)OCCO1` [Example 171, 8′-chloro-1′-[4-(pyridin-2-yl)piperazin-1-yl]-4′H,6′H-spiro[1,3-dioxolane-2,5′-[1,2,4]triazolo[4,3-a][1]benzazepine]], in assay [1], the Ki was determined as 0.6 nM. In assay [2], the IC50 was determined as 1.2 nM.

Consider `NC1Cc2cc(Cl)ccc2-n2c(nnc2C2CCN(c3ccccn3)CC2)C1` (stereo not drawn) [Example 2, 8-chloro-1-[1-(pyridin-2-yl)piperidin-4-yl]-5,6-dihydro-4H-[1,2,4]triazolo[4,3-a][1]benzazepine-5-amine], for which the Ki in assay [1] stood at 7 nM. The IC50 in assay [2] was found to be 170 nM.

Turning to `O=C([C@H]1CC[C@H](c2nnc3n2-c2ccc(Cl)cc2CC2(C3)OCCO2)CC1)N1CCCC1` [Example 70, [Trans-4-(8′-chloro-4′H,6′H-spiro[1,3-dioxolane-2,5′-[1,2,4]triazolo[4,3-a][1]benzazepine]-1′-yl)cyclohexyl](pyrrolidin-1-yl)methanone], in assay [1], the Ki turned out to be 0.4 nM. Also, the IC50 in assay [2] was determined as 1.2 nM.

For `CCN(C)[C@H]1Cc2cc(Cl)ccc2-n2c(nnc2[C@H]2CC[C@H](Oc3ccccn3)CC2)C1` [Example 160], in assay [1], the Ki amounted to 0.4 nM. In addition, the IC50 in assay [2] is 4.9 nM.

For the compound `COC1Cc2cc(Cl)ccc2-n2c(nnc2[C@H]2CC[C@@H](N3CCCC3=O)CC2)C1` (stereo partly drawn) [Example 218, 1-[cis-4-(8-chloro-5-methoxy-5,6-dihydro-H-[1,2,4]triazolo[4,3-a][1]benzazepin-1-yl)cyclohexyl]pyrrolidin-2-one], the Ki in assay [1] was determined as 97 nM. Moreover, the IC50 in assay [2] was 1250 nM.

`CC(C)N1CC[C@]2(CC[C@@H](c3nnc4n3-c3ccc(Cl)cc3CC3(C4)OCCO3)CC2)C1=O` [Example 115]: the Ki in assay [1] stood at 0.5 nM. Besides, the IC50 in assay [2] was 0.8 nM.

Regarding `CN(Cc1ccc(F)cc1)[C@H]1Cc2cc(Cl)ccc2-n2c(nnc2[C@H]2CC[C@H](Oc3ccccn3)CC2)C1` [Example 97, (5S)-8-chloro-N-(4-fluorobenzyl)-N-methyl-1-[trans-4-(pyridin-2-yloxy)cyclohexyl]-5,6-dihydro-4H-[1,2,4]triazolo[4,3-a][1]benzazepin-5-amine], the Ki in assay [1] is 122 nM. Moreover, in assay [2] (read-out: % at 1 μM, printed in the column IC50 (nM) on hV1a cell line), the inhibition at 1 µM turned out to be 34%.

In the case of `O=C1Cc2ccccc2-n2c(nnc2[C@H]2CC[C@H](Oc3ccccn3)CC2)C1` [Example 102, 1-[trans-4-(pyridin-2-yloxy)cyclohexyl]-4H-[1,2,4]triazolo[4,3-a][1]benzazepin-5(6H)-one], the Ki in assay [1] is 5.9 nM. Also, in assay [2], the IC50 is 23 nM.

In the case of `Clc1ccc2c(c1)CC(NC1COC1)Cc1nnc([C@H]3CC[C@H](Oc4ccccn4)CC3)n1-2` (stereo partly drawn) [Example 28, 8-chloro-N-(oxetan-3-yl)-1[trans-4-(pyridin-2-yloxy)cyclohexyl]-5,6-dihydro-4H-[1,2,4]triazolo[4,3-a][1]benzazepine-5-amine], the inhibition constant Ki in assay [1] was 0.7 nM. Also, the half-inhibitory concentration (IC50) in assay [2] is 5.4 nM.

In the case of `CN([C@H]1Cc2cc(Cl)ccc2-n2c(nnc2[C@H]2CC[C@H](Oc3ccccn3)CC2)C1)S(C)(=O)=O` [Example 76, N-{(5S)-8-chloro-1-[trans-4-(pyridin-2-yloxy)cyclohexyl]-5,6-dihydro-4H-[1,2,4]triazolo[4,3-a][1]benzazepin-5-yl}-N-methylmethanesulfonamide], the Ki in assay [1] is 1.1 nM. Further, in assay [2], the 50% inhibitory concentration (IC50) worked out at 2.2 nM.

In the case of `O=C1Cc2cc(C(F)(F)F)ccc2-n2c(nnc2[C@H]2CC[C@H](Oc3ccccn3)CC2)C1` [Example 48, 1-[trans-4-(pyridin-2-yloxy)cyclohexyl]-8-(trifluoromethyl)-4H-[1,2,4]triazolo[4,3-a][1]benzazepin-5(6H)-one], the Ki in assay [1] worked out at 18 nM. The half-maximal inhibitory concentration (IC50) in assay [2] is 340 nM.

For `CC(C)(O)C(=O)N[C@H]1Cc2cc(Cl)ccc2-n2c(nnc2[C@H]2CC[C@H](Oc3ccccn3)CC2)C1` [Example 159, N-{(5S)-8-chloro-1-[trans-4-(pyridin-2-yloxy)cyclohexyl]-5,6-dihydro-4H-[1,2,4]triazolo[4,3-a][1]benzazepin-5-yl}-2-hydroxy-2-methylpropanamide], the Ki in assay [1] amounted to 8 nM. Also, the IC50 in assay [2] amounted to 216 nM.
